Measurements: EP4670722A1, “PROPHYLACTIC OR AMELIORATING AGENT FOR CELL AGING” (Kyowa Pharma Chemical Co., Ltd., priority 2023, dated 2024)

Tests used:
IL-1α = IL-1α expression analysis (ELISA) under H2O2; format: cell-based, Human; details: HaCaT, 20 µM H2O2, 50 µg/mL to 200 µg/mL, 24 hours; suppression increased as content increased; Fig. 10
Experimental: Human normal epidermal keratinocytes (HaCaT) were cultured in DMEM containing 10% FBS. The cultured cells were collected by trypsin treatment. The collected cells were seeded in a 48-well plate at a cell density of 6 x 10^4 cells/well and cultured for 24 hours in a 37°C, 5% CO2 incubator. After culturing, the cells were precultured for 2 hours in FBS-free DMEM containing the test sample (2'-FL and sucrose) at 50 µg/mL, 100 µg/mL, or 200 µg/mL, or in FBS-free DMEM not containing the test sample. Thereafter, the medium was replaced with FBS-free DMEM containing the test sample at 50 µg/mL, 100 µg/mL, or 200 µg/mL and 20 µM H2O2, or with FBS-free DMEM not containing the test sample but containing 20 µM H2O2, respectively, and after culturing for an additional 24 hours in a 37°C, 5% CO2 incubator, the culture supernatant was collected. The culture supernatant was centrifuged, and the resulting supernatant was used as a sample. […]
Since most IL-1α is released extracellularly, the IL-1α expression level was evaluated by measuring IL-1α in the supernatant medium by ELISA (AuthentiKine™ IL-1 alpha ELISA Kit, manufactured by Proteintech). […] The relative value of the IL-1α amount when each test sample was added was calculated, with the IL-1α amount in the control set to 1.

GLS1 [1] = experiment: GLS1 expression analysis (Western blot) in dermal fibroblasts cultured with medium of hydrogen peroxide-treated cells; format: cell-based, Human; details: dermal fibroblasts NB1RGB, 50 µg/mL to 200 µg/mL, 24 hours, protein level vs β-actin; effect increased as content increased; Fig. 4
Experimental: Human normal dermal fibroblasts (NB1RGB, PDL of 30 or less) were cultured using DMEM containing 10% FBS. The cultured cells were collected by trypsin treatment. The collected cell-containing liquid was diluted with DMEM containing 10% FBS to a cell concentration of 5.0 x 10^5 cells, seeded in a 10 cm dish, and cultured until 60% confluent. Thereafter, the cultured cells were subjected to a treatment of exposure to a medium containing 50 µM hydrogen peroxide (FBS-free) for 2 hours once a day for 3 days. Then, the medium was replaced with DMEM containing 5% FBS, and after 2 days, the medium (medium A) was collected. Dermal fibroblasts not exposed to hydrogen peroxide were diluted with DMEM containing 10% FBS to a concentration of 5.0 x 10^5 cells, seeded in a 10 cm dish, and cultured for 24 hours. […]
The dermal fibroblasts prepared in [Example 3-1] were diluted with DMEM medium containing 10% FBS to a concentration of 8.0 x 10^4 cells, seeded in a 6-well plate, and cultured until 80% confluent. […] The extracted proteins were quantified by the Bradford assay.
Except that no test sample was added, skin fibroblasts prepared in [Example 3-1] and skin fibroblasts cultured using DMEM containing 10% FBS were cultured in the same manner as in [Example 3-2], and proteins were extracted. The extracted proteins were quantified by the Bradford assay. […]

GLS1 [2] = experiment: GLS1 expression analysis (Western blot) in HEK293; format: cell-based; details: human embryonic kidney cells (HEK293), at least 200 µg/mL or more, 24 hours; effect increased from 200 to 1000 µg/mL; Fig. 12
Experimental: Human embryonic kidney cells (HEK293) were cultured in DMEM containing 10% FBS. The cultured cells were collected by trypsin treatment. The collected cells were seeded in a 6-well plate, and when they reached 100% confluence, DMEM containing 2'-FL as a test sample at 50 µg/mL, 200 µg/mL, or 1000 µg/mL, and lactose at 50 µg/mL or 200 µg/mL was added, and cultured for 24 hours in a 37°C, 5% CO2 incubator. The culture supernatant was removed, the cells were washed twice with phosphate-buffered saline (PBS), and 0.20 mL of RIPA buffer (manufactured by Nacalai Tesque, Inc.) was added to extract total protein. Protein in each protein extract was quantified by the Bradford assay.
Protein extracts were collected in the same manner as in [Example 10-1 A. Human embryonic kidney cells (HEK293)], except that DMEM not containing the test sample was used instead of DMEM containing the test sample, and protein in each protein extract was quantified by the Bradford assay.
Western blot analysis was performed on each protein extract using an anti-GLS1 antibody and an anti-β-actin antibody. […] The intensity of color development was quantified using the open-source software 'ImageJ'. The relative value of the GLS1 amount relative to the β-actin amount when each test sample was added was calculated, with the GLS1 amount relative to the β-actin amount in the control set to 1. […]

**Q.** For `C[C@@H]1O[C@@H](O[C@H]2[C@H](O[C@H]3[C@H](O)[C@@H](O)C(O)O[C@@H]3CO)O[C@H](CO)[C@H](O)[C@@H]2O)[C@@H](O)[C@H](O)[C@@H]1O` (stereo partly drawn) [2'-FL, 2'-fucosyllactose], which “H2O2-induced promotion of IL-1α expression” value (IL-1α) is on record?
**A.** suppressed the H2O2-induced promotion of IL-1 α expression

**Q.** What about the “expression of GLS1” value (GLS1 [1]) of the same molecule?
**A.** suppressed the expression of GLS1

**Q.** What about the GLS1 expression (GLS1 [2]) of the same molecule?
**A.** suppressed GLS1 expression
